Assay results from ChEMBL document CHEMBL4251716, “Miuramides A and B, Trisoxazole Macrolides from a Mycale sp. Marine Sponge That Induce a Protrusion Phenotype in Cultured Mammalian Cells” (J Nat Prod, 2018).
Calls of active or inactive are those of the source. The rule behind the calls is not given here.

Experiments:
Format in all cases: functional, cell-based
3Y1 cell line [1] = assay: Cytotoxicity against rat 3Y1 cells after 72 hrs by MTT assay; conditions: 3Y1, 72 h
3Y1 cell line [2] = assay: Induction of morphological changes in rat 3Y1 cells assessed as protrusions in cell membrane at 4.2 uM measured after 5 mins by IncuCyte live cell imaging method
3Y1 cell line [3] = assay: Induction of morphological changes in rat 3Y1 cells assessed as protrusions in cell membrane at 1.9 uM measured after 5 mins to 48 hrs by IncuCyte live cell imaging method
3Y1 cell line [4] = assay: Induction of morphological changes in rat 3Y1 cells assessed as protrusions in cell membrane at 41 uM measured after 5 mins to 48 hrs by IncuCyte live cell imaging method
3Y1 cell line [5] = assay: Induction of morphological changes in rat 3Y1 cells assessed as protrusions in cell membrane at 0.05 uM measured after 5 mins to 48 hrs by IncuCyte live cell imaging method
3Y1 cell line [6] = assay: Induction of morphological changes in rat 3Y1 cells assessed as protrusions in cell membrane at 2.7 uM measured after 5 mins to 48 hrs by IncuCyte live cell imaging method

SMILES: CO[C@@H]([C@@H](C)[C@@H](CC[C@H](C)[C@H](C[C@@H]1OC(=O)C[C@@H](O)C/C=C/C(=O)[C@H](C)[C@H](OC)c2coc(n2)-c2coc(n2)-c2coc(n2)/C=C/C[C@H](OC)[C@H]1C)OC)OC(=O)[C@@H](C)OC)[C@H](C)/C=C/N(C)C=O
- IC50 (3Y1 cell line [1]): 7 nM
- Activity (3Y1 cell line [2]): Active

SMILES: C/C1=C/C(=O)O[C@@H]2C[C@@H](CC[C@H](C)/C=C\C=C\CC1)O[C@@](O)([C@@H]1CSC(=O)N1)C2
- Activity (3Y1 cell line [3]): Active

SMILES: C=C1[C@@H](C)[C@H]2[C@H](Cc3ccccc3)NC(=O)[C@]23OC(=O)/C=C/[C@@H](O)CCC[C@@H](C)C/C=C/[C@H]3[C@@H]1O
- Activity (3Y1 cell line [4]): Active

SMILES: CO[C@H]1C[C@H](CC[C@H](C)[C@H](O)[C@H](C)[C@H]2OC(=O)/C(C)=C/C[C@H](O)C[C@@H]3C=CC[C@@H](C[C@H](OC)[C@@H](C)[C@@H](O)C[C@@H](O)[C@H](C)[C@@H]([C@@H](C)[C@@H](O)[C@@H](C)CC[C@H]4C[C@H](OC)C[C@H](C)O4)OC(=O)/C(C)=C/C[C@H](O)C[C@@H]4C=CC[C@@H](C[C@H](OC)[C@@H](C)[C@@H](O)C[C@@H](O)[C@@H]2C)O4)O3)O[C@@H](C)C1
- Activity (3Y1 cell line [5]): Active

SMILES: CO[C@H]([C@H](C)/C=C/N(C)C=O)[C@@H](C)C(=O)CC[C@H](C)[C@H](C[C@@H]1OC(=O)C[C@@H](O)C/C=C/C(=O)[C@H](C)[C@H](OC)c2coc(n2)-c2coc(n2)-c2coc(n2)/C=C/C[C@H](OC)[C@H]1C)OC
- IC50 (3Y1 cell line [1]): 7 nM

SMILES: COC[C@@H](OC)C(=O)O[C@H](CC[C@H](C)[C@H](C[C@@H]1OC(=O)C[C@@H](O)C/C=C/C(=O)[C@H](C)[C@H](OC)c2coc(n2)-c2coc(n2)-c2coc(n2)/C=C/C[C@H](OC)[C@H]1C)OC)[C@H](C)[C@H](OC(C)=O)[C@H](C)/C=C/N(C)C=O
- Activity (3Y1 cell line [6]): Active
